Reference: patent US20090252816A1, “Inhalable Gaseous Medicament Based On Xenon And Nitrous Oxide” (AIR LIQUIDE SANTE (INRTERNATIONAL), priority 2003, published 2009)

What was measured:
[1] = system: posterior and retrosplenial cingulate cortices; assay: histological study of neurons of the posterior and retrosplenial cingulate cortices after repeated gas exposure; format: in vivo, rat; conditions: for histological findings in posterior and retrosplenial cingulate cortices (neurotoxic effect): repeated exposure for 3 consecutive days
Procedure: (§1) 15 groups of animals (of 7 or 8 animals each) were used, including 10 groups during the actual sensitization studies and 5 other groups during the histological studies of the neurons of the posterior and retrosplenial cingulate cortices.
In order to identify the possible neurotoxic potential of repeated exposure (3 hours per day […]) to nitrous oxide or to xenon on the posterior and retrosplenial cingulate cortices, 5 additional groups of animals were pretreated, according to a protocol identical to that defined above, by administration of a saline solution, and then exposed either to air (group 11) or to 50% or 75% nitrous oxide (groups 12 and 13) or to 50% or 75% xenon (groups 14 and 15).
To do this, after treatment, the animals were sacrificed on D8 by decapitation under general anesthesia with halothane, and the cranium was then immediately placed in a paraformaldehyde solution for one week. The brain was removed, coated with paraffin and sectioned into frontal slices of 4 μm mounted on gelatinized slides and stained with a hemalun-eosin-saffron solution. The posterior and retrosplenial cingulate cortices were analyzed using an optical microscope (×400).

[2] = system: sensitization to d-amphetamine; assay: d-amphetamine sensitization protocol, locomotor activity in actimetry cages; format: in vivo, rat; conditions: for blocking of the sensitization process (locomotor activity in d-amphetamine test on D7): remainder oxygen, 3 h after each d-amphetamine injection D1-D3; for concentration necessary to block the sensitization process: d-amphetamine sensitization
Procedure: Male Sprague-Dawley rats weighing about 250 g were used in the experiments.
as §1
The animals were injected intraperitoneally (i.p.) for 3 consecutive days from D1 to D3 with d-amphetamine (Amph; 1 mg/ml/kg) or, depending on the case, with a saline solution (1 ml/kg) for the control animals.
After each injection, the rats were immediately placed for 3 hours in a closed chamber, 100 liters in volume, flushed in dynamic regime with a constant flow rate of 5 l.min^−1, either with air (group 1: saline; group 2: Amph), or with 50% by volume of nitrous oxide (group 3: saline; group 4: Amph) or 75% (group 5: saline; group 6: Amph), or with 50% by volume of xenon (group 7: saline; group 8: Amph) or 75% (group 9: saline, group 10: Amph); the rest of the mixtures (remainder to 100%) being oxygen.
The locomotor activity of the animals of groups 1 to 10 was evaluated on D6, after an i.p. injection of a saline solution (1 ml/kg), and on D7 after an i.p. injection of d-amphetamine (1 mg/ml/kg). The locomotor activity of the animals in response to these injections was recorded using actimetry cages with photoelectric cells (Imétronic, Pessac. France).
The results obtained, given in the attached FIGS. 1 and 2, are expressed as the mean±standard error. The comparison of the groups was performed by means of nonparametric tests: Kruskall-Wallis analysis of variance, followed in the event of a significant result by the Mann-Whitney U test.

[3] = system: glutamatergic receptors of AMPA type; conditions: Yakamura and Harris, 2000; cited from earlier work
[4] = system: N-methyl-D-aspartate glutamatergic receptors; conditions: in vitro; Franks et al. 1998, Jevtovic-Todorovic et al. 1998; cited from earlier work
[5] = system: dopamine release in the nucleus accumbens septi; assay: dopamine release in slices of nucleus accumbens septi by differential pulse voltammetry; format: cell-based, rat
Procedure: In addition, the preparation of the slices of nucleus accumbens septi was performed as follows. The animals were decapitated under mild anesthesia with halothane and the brain was then rapidly removed. Frontal sections of 300 μm, corresponding to an anteriority of +0.70/1.20 mm (according to Bregma, Paxinos and Watson, 1998) were taken using a chopper (Mickie Laboratory Engineering Company, Gomshall, Surrey, UK). The brain slices were placed for recovery in a buffered saline solution with a temperature of 3-4° C. for at least 1 hour before use for neurochemical study.
The measurement of the dopamine release was performed by the technique of normal differential pulse voltammetry using a single-fiber carbon electrode 10 μm in diameter and 250 μm long (CFN10-250; World Precision Instruments, Aston, Stevenage, Hertfordshire, UK). The electrochemical treatment enabling this type of electrode to be made sensitive to dopamine consisted in applying a continuous current of −1.5 V into a phosphate-buffered saline solution for 20 seconds, followed by a triangular current of +2.6 V also for 20 seconds on the working electrode (Brazell et al., 1987). Under these conditions, the dopaminergic signal appears at a potential of +100 mV.
The rat brain slices were then placed in an organ tank and infused with artificial cerebrospinal fluid having the composition: NaCl 118 mM, MgCl2 1.18 mM, KCl 4.9 mM, NaH2PO4 1.25 mM, CaCl2 1.25 mM, NaHCO3 3.6 mM, d-glucose 10 mM, HEPES 30 mM, pH 7.4, the temperature of which was maintained at 34±1° C. using a temperature controller (Delta 4 Culture Dish Controller, Bioptechs, Butler, Pa., USA). The electrode was placed under microscopic control (microscope EFN 600, Nikon, Paris, France), 100 μm from the anterior commissure, using an optical micrometer incorporated into the microscope, and then fully descended into the nucleus accumbens septi, at an angle of 45°, and connected to the Biopulse polarograph set in normal differential pulse voltammetry mode with the following parameters: scanning potential −150+350 mV; scanning time 0.4 s, scanning amplitude 4 mV, for a scanning speed of 10 mV.s^−1, 40 ms measuring pulse; 70 ms measuring prepulse; 30 mV measuring amplitude.
The dopaminergic hyperstimulation was induced by adding d-amphetamine to the infusion liquid. Medical air, nitrous oxide or xenon was dissolved, to saturation, before use in the infusion liquid, the pH of which was readjusted to 7.4.

[6] = toxicity threshold of xenon stated for man; conditions: in man
[7] = system: weaning from alcohol; conditions: Lichtigfeld and Gillman 1989; cited from earlier work
[8] = gas at 50 vol % or 75 vol % (summary statement)

In the case of `[Xe]` [xenon], the “histological findings in posterior and retrosplenial cingulate cortices (neurotoxic effect)” value (from here on “histological findings”) ([1]; gas at 50 vol %) is reported as “No similar effect”, the “histological findings” value ([1]; gas at 75 vol %) is reported as “generalized cytoplasmic clarification” and the toxicity threshold ([1]; in rats) is reported as “about 75%”. For the same compound, the “blocking of the sensitization process (locomotor activity in d-amphetamine test on D7)” value (from here on “blocking of the sensitization process”) ([2]; gas at 50 vol %, rats) was “blocking of the sensitization”, the “blocking of the sensitization process” value ([2]; gas at 75 vol %, rats) was “blocking of the sensitization” and the “response to d-amphetamine on D7 in animals pretreated with saline solution” value ([2]; gas at 75 vol %, versus air or xenon at 50 vol %) was “significant increase”. For the same compound, the “concentration necessary to block the sensitization process” value ([2]; rats) was 50 vol %, the “effect on glutamatergic receptors of AMPA type” value [3] was “no effect” and the “antagonist affinity for NMDA receptors” value [4] was “low affinity”. For the same compound, the “increase in dopamine release induced with d-amphetamine” value (from here on “increase in dopamine release induced”) ([5]; gas at 50% by volume in the infusion liquid, d-amphetamine 10^-5 M) was “significantly reduced”, the “increase in dopamine release induced” value [5, 8] was “block the increase” and the toxicity threshold [6] was “about 60%”.

For `C[C@H](N)Cc1ccccc1.C[C@H](N)Cc1ccccc1.O=S(=O)(O)O` [d-amphetamine, d-amphetamine sulfate], the “locomotor activity in d-amphetamine test on D7, animals pretreated with d-amphetamine versus saline” value ([2]; d-amphetamine 1 mg/ml/kg i.p. D1-D3, air) was “significantly higher” and the “dopamine signal relative to the measured basal signal” value ([5]; d-amphetamine at 10^-5 M in infusion liquid) was “significant increase”.

In the case of `[N-]=[N+]=O` [nitrous oxide], the “effect on weaning from alcohol” value [7] is given as “slightly better than the placebo effect”, the “histological findings” value ([1]; gas at 75 vol %) is given as “No similar effect” and the “locomotor activity in response to the saline test on D6 (long-term sedative effect)” value ([2]; gas at 50 vol % or 75 vol %, rats) is given as “no significant difference”. For the same compound, the “blocking of the sensitization process” value ([2]; gas at 50 vol %, rats) was “partial blocking”, the “blocking of the sensitization process” value ([2]; gas at 75 vol %, rats) was “significant blocking” and the “concentration necessary to block the sensitization process” value ([2]; rats) was 75 vol %. For the same compound, the “gas effect on acute d-amphetamine test at D7 in rats pretreated with saline solution” value ([2]; saline-pretreated rats, nitrous oxide exposure D1-D3) was “no “gas” effect”, the “effect on glutamatergic receptors of AMPA type” value [3] was “no effect” and the “antagonist affinity for NMDA receptors” value [4] was “low affinity”. The “increase in dopamine release induced” value [5, 8] was “block the increase” and the “increase in dopamine release induced” value ([5]; gas at 75% by volume in the infusion liquid, d-amphetamine 10^-5 M) was “significantly reduced”.
